Consider 8 molecules from US20190362816A1, “Systems and Methods for Developing Covalent Inhibitor Libraries for Screening Using Virtual Docking and Experimental Approaches” (Northwestern University, priority 2016, published 2019).

Experiment [1] has as its target T1, cysteine protease papain (Carica papaya, UniProt P00784).
T1 sequence (P00784 134-345): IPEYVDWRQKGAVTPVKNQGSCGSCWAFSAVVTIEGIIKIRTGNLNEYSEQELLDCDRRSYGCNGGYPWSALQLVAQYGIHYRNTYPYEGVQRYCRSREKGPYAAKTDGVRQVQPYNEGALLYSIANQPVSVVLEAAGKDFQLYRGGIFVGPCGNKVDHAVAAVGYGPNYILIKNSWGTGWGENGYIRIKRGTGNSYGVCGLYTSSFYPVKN
As to the kind of experiment: enzyme assay against cysteine protease papain (kinact/Ki). It counts as biochemical. The settings on record: covalent fragments of this work; J Med Chem. 2014, 57(11), 4969-74; read-out: Inhibitors of papain in this work, kinact/Ki. The text has this:
In a further embodiment, once the potential covalent inhibitor candidate libraries have been prepared, these candidates can be evaluated by dosing them in a specific assay at a specific concentration versus the receptor to determine the potency of each of the candidates. Depending on the covalent inhibitor, the receptor, and the therapeutic area, the assays will vary. Methods of performing wet chemistry assays are well known. Examples of covalent fragments evaluated in the enzyme assays against cysteine protease papain is shown below (J Med Chem. 2014 Jun. 12; 57(11):4969-74): […]

Experiment [2] addresses T1, cysteine protease papain. The conditions noted are these: J Med Chem. 2014, 57(11), 4969-74; cited from earlier work.
Experiment [3] deals with cysteine protease cathepsin L (Homo sapiens, UniProt P07711). Description: cathepsin L assay using commercially available fluorescent substrates. It counts as biochemical. The text has this: Experimental validation of identified inhibitors of cysteine protease cathepsin L. Identified covalent inhibitors (including 53) had been synthesized and tested in cathepsin L assays using commercially available fluorescent substrates for cathepsins (Calbiochem).
cysteine protease cathepsin L, sequence (P07711 114-333): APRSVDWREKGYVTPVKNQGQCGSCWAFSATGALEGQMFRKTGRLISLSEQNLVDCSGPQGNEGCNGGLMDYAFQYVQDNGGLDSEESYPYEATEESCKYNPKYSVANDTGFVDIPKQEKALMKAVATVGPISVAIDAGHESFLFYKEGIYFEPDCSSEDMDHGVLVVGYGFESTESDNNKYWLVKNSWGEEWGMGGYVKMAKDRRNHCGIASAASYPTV

Experiment [4] deals with Cathepsin B cysteine protease (Homo sapiens, UniProt P07858). As to the kind of experiment: inhibition of related Cathepsin B cysteine protease. The experiment is classed as biochemical. The conditions noted are these: selectivity versus cathepsin L.

Broadly, the Ki is the equilibrium dissociation constant of an inhibitor or competing ligand from its target.

Turning to `COC(=O)/C=C/CNC(=O)c1sc(-c2ccccc2F)nc1C`, the kinact/KI on cysteine protease papain [1] was found to be 0.409 M⁻¹ s⁻¹. With `COC(=O)/C=C/CNC(=O)[C@@H](CNC(C)=O)Cc1ccccc1`, at cysteine protease papain [2], the “Known inhibitors of papain, kinact/Ki” value was 6.575 M⁻¹ s⁻¹. Regarding `COC(=O)/C=C/CNC(=O)[C@H](CNC(C)=O)Cc1ccccc1`, on cysteine protease papain [2], the “Known inhibitors of papain, kinact/Ki” value is 0.386 M⁻¹ s⁻¹. For `CC(Oc1ccc(Br)cc1Br)C(=O)NC/C=C/S(C)(=O)=O` (racemic) [Compound 53], the kinact/KI in experiment [3] (detailed kinetic analysis) came to 4.1 M⁻¹ s⁻¹. The Ki in experiment [3] (fluorescent substrates (Calbiochem)) amounted to 134 ± 2 µM. Also, in experiment [4], the “inhibition of Cathepsin B” value is given as “does not inhibit”. Turning to `COC(=O)/C=C/CNC(=O)C1CCN(C(=O)CC(C)C)CC1`, on cysteine protease papain [1], the kinact/KI is 0.461 M⁻¹ s⁻¹. For `COC(=O)/C=C/CNC(=O)c1ccc(C2CCCO2)s1` (stereo not shown), on cysteine protease papain [1], the kinact/KI worked out at 0.037 M⁻¹ s⁻¹. As for `COC(=O)/C=C/CNC(=O)[C@@H](CNC(C)=O)CC(C)C`, the “Known inhibitors of papain, kinact/Ki” value at cysteine protease papain [2] is 1.102 M⁻¹ s⁻¹. In the case of `COC(=O)/C=C/CNC(=O)c1cc(-c2ccc(C)cc2)on1`, the kinact/KI on cysteine protease papain [1] was determined as 1.23 M⁻¹ s⁻¹.
